# According to patent US20110053773A1, “METHODS OF IMPROVING NUTRITIONAL VALUE OF PLANTS” (UNIVERSITY OF TENNESSEE RESEARCH FOUNDATION, priority 2009, published 2011):
# Test system: switchgrass "Alamo"
# Test: Sugar content of switchgrass after isoxaben (Example 6)
# Assay type: in vivo
# Conditions: 1120 g ai/ha + 1% v/v crop oil concentrate POST; harvested 8 weeks after application; % of fresh weight basis
# Procedure: Switchgrass was harvested 8 weeks after application and three replicates were analyzed compared with an untreated check. Sugar content was assessed on a percentage of the fresh weight and values were converted to a percentage of values derived from the untreated control. Isoxaben increased fructose by 44%, glucose by 33%, and total sugars by 38% in comparison to the untreated check. Switchgrass is currently under evaluations as a biofuels crop whereby enhanced sugar output per acre is desired.
smiles,measurement,value
"CCC(C)(CC)c1cc(NC(=O)c2c(OC)cccc2OC)on1 [Isoxaben, isoxaben]",fructose increase in comparison to the untreated check,44%
same,glucose increase in comparison to the untreated check,33%
same,total sugars increase in comparison to the untreated check,38%
